How the values were obtained:
Assay in all cases: relative viability (nuclei count vs DMSO), 5 days (fraction); higher = more cells survive
IU1-47 + Tozasertib = compound: CC1=CC(=C(N1C2=CC=C(C=C2)Cl)C)C(=O)CN3CCCCC3 [IU1-47] + Cc1cc(Nc2cc(N3CCN(C)CC3)nc(Sc3ccc(NC(=O)C4CC4)cc3)n2)n[nH]1 [Tozasertib] (partner 0.1 µM)
In short: (§1)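 Lung cancer cell lines were pin-tool dosed in 1536-well plates on the day after seeding, with either a lone drug or a fixed anchor-drug dose plus five library-drug doses (not always all listed) in √10 steps. Nuclei were counted on 4× images after 5 days. Relative viability is the ratio of treated-well to vehicle-well nuclei counts, with each value a median of duplicate plates.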

FG-4592 + Linsitinib = compound: Cc1nc(C(=O)NCC(=O)O)c(O)c2ccc(Oc3ccccc3)cc12 [FG-4592] + C[C@]1(O)C[C@@H](c2nc(-c3ccc4ccc(-c5ccccc5)nc4c3)c3c(N)nccn32)C1 [Linsitinib] (partner 1 µM)
In short: as §1

FG-4592 + Palbociclib = compound: Cc1nc(C(=O)NCC(=O)O)c(O)c2ccc(Oc3ccccc3)cc12 [FG-4592] + CC(=O)c1c(C)c2cnc(Nc3ccc(N4CCNCC4)cn3)nc2n(C2CCCC2)c1=O [Palbociclib] (partner 0.5 µM)
In short: as §1

FG-4592 + Navitoclax = compound: Cc1nc(C(=O)NCC(=O)O)c(O)c2ccc(Oc3ccccc3)cc12 [FG-4592] + CC1(C)CCC(c2ccc(Cl)cc2)=C(CN2CCN(c3ccc(C(=O)NS(=O)(=O)c4ccc(N[C@H](CCN5CCOCC5)CSc5ccccc5)c(S(=O)(=O)C(F)(F)F)c4)cc3)CC2)C1 [Navitoclax] (partner 0.5 µM)
In short: as §1

| Cell Line | relative viability (IU1-47 + Tozasertib; first compound 0.08 µM) | relative viability (IU1-47 + Tozasertib; first compound 0.253 µM) | relative viability (IU1-47 + Tozasertib; first compound 0.8 µM) | relative viability (IU1-47 + Tozasertib; first compound 2.53 µM) | relative viability (IU1-47 + Tozasertib; first compound 8 µM) | relative viability (FG-4592 + Linsitinib; first compound 0.08 µM) | relative viability (FG-4592 + Linsitinib; first compound 0.253 µM) | relative viability (FG-4592 + Linsitinib; first compound 0.8 µM) | relative viability (FG-4592 + Linsitinib; first compound 2.53 µM) | relative viability (FG-4592 + Linsitinib; first compound 8 µM) | relative viability (FG-4592 + Palbociclib; first compound 0.08 µM) | relative viability (FG-4592 + Palbociclib; first compound 0.253 µM) | relative viability (FG-4592 + Palbociclib; first compound 0.8 µM) | relative viability (FG-4592 + Palbociclib; first compound 2.53 µM) | relative viability (FG-4592 + Palbociclib; first compound 8 µM) | relative viability (FG-4592 + Navitoclax; first compound 0.08 µM) | relative viability (FG-4592 + Navitoclax; first compound 0.253 µM) | relative viability (FG-4592 + Navitoclax; first compound 0.8 µM) | relative viability (FG-4592 + Navitoclax; first compound 2.53 µM) | relative viability (FG-4592 + Navitoclax; first compound 8 µM) |
| --- | --- | --- | --- | --- | --- | --- | --- | --- | --- | --- | --- | --- | --- | --- | --- | --- | --- | --- | --- | --- |
| NCI-H838 | 0.268 | 0.28 | 0.297 | 0.301 | 0.248 | 1.1 | 0.941 | 1.01 | 1.04 | 0.938 | 0.192 | 0.218 | 0.198 | 0.218 | 0.174 | 1.27 | 1.09 | 1.09 | 1.2 | 1.11 |
| NCI-H1755 | 0.583 | 0.687 | 0.612 | 0.631 | 0.563 | 0.993 | 0.961 | 0.963 | 1.04 | 1.06 | 0.476 | 0.446 | 0.409 | 0.471 | 0.463 | 0.989 | 0.977 | 0.937 | 0.997 | 1.01 |
| HCC-78 | 0.37 | 0.508 | 0.479 | 0.372 | 0.404 | 0.599 | 0.476 | 0.374 | 0.494 | 0.506 | 0.468 | 0.486 | 0.465 | 0.453 | 0.438 | 0.904 | 0.766 | 0.442 | 0.773 | 0.806 |
| IA-LM |  |  |  |  |  | 0.578 | 0.597 | 0.565 | 0.376 | 0.476 |  |  |  |  |  | 0.785 | 0.707 | 0.899 | 0.481 | 0.397 |
